Data on 103 compounds can be found in PubChem BioAssay AID1996.

A word on the kinetic solubility: it is the concentration staying in solution when a stock, usually in DMSO, is diluted into the medium.

Structures are written as SMILES. ≈ marks a conversion by molar mass, not a printed value.

For the data set the following is noted: buffer; pH 7.4; 200.0 µM.
`Cn1c(=O)c2c(nc(Oc3ccccc3Cl)n2C)n(C)c1=O` registered a kinetic solubility of 16 µg/mL (≈ 49.9 µM).
As to `Nc1c(Cl)ncnc1NCc1ccccc1`, the kinetic solubility is 32.6 µg/mL (≈ 139 µM).
`CCOc1ccc(NC(=O)N(C2CCCC2)C2CCN(C(C)=O)CC2)cc1` displayed a kinetic solubility above 56 µg/mL.
Take `CN(C)C(CNC(=O)c1ccc(NC(=O)CC#N)cc1)c1ccccc1` (stereo not drawn): the solubility (kinetic) was above 52.6 µg/mL.
Consider `Cc1nc(-c2cccc(NC(=O)c3ccc(Br)o3)c2)cs1`, for which the kinetic solubility came out at 17.2 µg/mL (≈ 47.4 µM).
Compound `Cc1nc(-c2cccc(NC(=O)c3ccco3)c2)cs1` yielded a solubility (kinetic) above 42.6 µg/mL.
`COc1cc(CNc2ccc(N3CCCC3)cc2)cc(Cl)c1OC` yielded a kinetic solubility of 9.7 µg/mL (≈ 28 µM).
`CC1CCCCC1NC(=O)COC(=O)c1ccc([N+](=O)[O-])o1` (stereo not drawn) displayed a kinetic solubility above 46.5 µg/mL.
The figure for `O=C(CSc1cccc[n+]1[O-])N1CCCCCC1` is 27 µg/mL (≈ 101 µM); for `COc1ccc(C(=O)OCC(=O)Nc2ccccc2)cc1[N+](=O)[O-]` it is 3 µg/mL (≈ 9.08 µM); for `O=C(Nc1ccccc1Br)c1cc[n+]([O-])cc1` it is above 44 µg/mL.
`CSc1nc(-c2ccccc2)nc(NC(C)=O)c1C(C)=O` gave a solubility (kinetic) of 3.9 µg/mL (≈ 12.9 µM).
The figure for `O=c1[nH]c2ccccc2nc1-c1ccccc1` is 3.9 µg/mL (≈ 17.5 µM).
Take `O=C(O)c1cn(-c2ccc(F)cc2)c2cc(Cl)c(F)cc2c1=O`: the solubility (kinetic) was above 50.4 µg/mL.
With `O=[N+]([O-])c1ncccc1OCc1ccc(Cl)c(Cl)c1`, the solubility (kinetic) stood at 0.4 µg/mL (≈ 1.34 µM).
In the case of `COc1ccc(N(C)S(=O)(=O)c2cccc(C(=O)OCC(=O)N(C)c3ccccc3)c2)cc1`, the solubility (kinetic) came to 7.9 µg/mL (≈ 16.9 µM).
Turning to `OCc1ccccc1CN1CCCCCC1`, the kinetic solubility was 28.8 µg/mL (≈ 131 µM).
Regarding `O=[N+]([O-])c1cnccc1NC1CCCCC1`, the kinetic solubility amounted to 29.1 µg/mL (≈ 132 µM).
`O=C(Nc1cccc(Cl)c1N1CCOCC1)c1ccco1` had a kinetic solubility of 5.7 µg/mL (≈ 18.6 µM).
As for `O=C(Nc1nccs1)C1=COCCO1`, the kinetic solubility was above 31.8 µg/mL.
On to `COc1cc(OC)c(C(=O)NCc2cccnc2)cc1OC`, for which the kinetic solubility is 42.9 µg/mL (≈ 142 µM).
`Fc1ccccc1CNC(=S)NC1CCCCC1` displayed a solubility (kinetic) above 40 µg/mL.
With `CC(NC(=O)C(C)N1C(=O)c2ccccc2C1=O)c1ccccc1` (stereo not drawn), the solubility (kinetic) was above 48.4 µg/mL.
The figure for `COc1ccccc1C1(O)C(=O)Nc2ccc(C)cc21` (stereo not drawn) is above 40.4 µg/mL; for `COc1cccc(NC(=O)Nc2ccc3nc(C)c(C)nc3c2)c1` it is 0.9 µg/mL (≈ 2.79 µM); for `NC(=O)C1CCN(C(=O)c2cc3ccccc3cc2O)CC1` it is above 44.8 µg/mL.
Consider `Cc1c(NC(=O)C(C)Oc2ccc(Br)cc2)c(=O)n(-c2ccccc2)n1C` (stereo not drawn), for which the kinetic solubility was above 64.5 µg/mL.
The figure for `Cl.N=C(N)SCP(=O)(c1ccccc1)c1ccccc1` is above 49 µg/mL.
On to `Cc1ccc(O)c(NC(=O)C2CCCCC2)c1`, for which the solubility (kinetic) was found to be 33.3 µg/mL (≈ 143 µM).
`CCOc1cccc(C(=O)N/N=C/c2ccoc2)c1`: the solubility (kinetic) is above 38.7 µg/mL.
The compound `Cc1ccc2c(c1)cc(C(=O)N1CCN(c3ccccn3)CC1)n2C` gave a solubility (kinetic) of 2.1 µg/mL (≈ 6.28 µM).
For `Cn1cc(C(O)CN2CCCCC2)c2ccccc21` (stereo not drawn), the solubility (kinetic) turned out to be 38.1 µg/mL (≈ 147 µM).
For the compound `O=[N+]([O-])c1ccccc1S(=O)(=O)Nc1ccc2c(c1)OCCO2`, the solubility (kinetic) was above 50.4 µg/mL.
Regarding `CN(C(=O)c1c[nH]c(=O)cc1C(F)(F)F)c1ccc(Cl)cc1`, the kinetic solubility turned out to be 45.9 µg/mL (≈ 139 µM).
On to `Cc1ccc(C(=O)NCC(=O)NC2CCCCCC2)cc1`, for which the kinetic solubility stood at 21.1 µg/mL (≈ 73.2 µM).
`NS(=O)(=O)c1ccc(CNC(=O)C(c2ccccc2)c2ccccc2)cc1` returned a kinetic solubility of 56.1 µg/mL (≈ 147 µM).
Take `O=C(CSc1n[nH]c(-c2ccc(Br)cc2)n1)N1CCOCC1`: the kinetic solubility was above 57.5 µg/mL.
In turn, `CN(c1ccc([N+](=O)[O-])cc1C(N)=O)C1CCCCC1` yielded a solubility (kinetic) of 38.3 µg/mL (≈ 138 µM).
The compound `Cc1[nH]c2ccccc2c1SCC(=O)N1CCC(C)CC1` returned a solubility (kinetic) above 45.4 µg/mL.
Compound `CC(=O)C(Sc1nccc(-c2cccs2)n1)C(C)=O` returned a kinetic solubility of 40.5 µg/mL (≈ 139 µM).
The figure for `CC1Cc2ccccc2N1Cc1cccc([N+](=O)[O-])c1` (stereo not drawn) is 3.6 µg/mL (≈ 13.4 µM).
Consider `COc1ccc(OCCNS(=O)(=O)c2cccc([N+](=O)[O-])c2)cc1`, for which the solubility (kinetic) turned out to be 16.4 µg/mL (≈ 46.5 µM).
`COc1ccc(/C=C2\N=C(C)OC2=O)cc1[N+](=O)[O-]` displayed a kinetic solubility of 25.7 µg/mL (≈ 98 µM).
Under `Cl.Oc1ccccc1C1NCc2ccccc2-n2cccc21` (stereo not drawn) stands 32.2 µg/mL; under `CC(C)CNC(=O)C1CCN(CC2CCCCC2)CC1.O=C(O)C(=O)O`, above 55.6 µg/mL; under `CC(C)N1CC(COc2ccc(Br)cc2)OC1=O` (stereo not drawn), 45.1 µg/mL (≈ 144 µM).
The figure for `CC(=O)NCCc1nc2ccccc2n1CCOc1ccc(C)cc1` is above 50.6 µg/mL; for `CSCCCNC(=S)Nc1ccc(N2CCOCC2)cc1` it is above 48.8 µg/mL; for `COc1cccc(/C=C/C(=O)OCC(=O)NC2CC2)c1OC` it is 24 µg/mL (≈ 78.6 µM).
The figure for `CCOc1ccc(CC(=O)N/N=C(\C)c2cccnc2)cc1` is above 44.6 µg/mL; for `COc1cc(CC(=O)N2CCN(S(=O)(=O)c3ccc(C)cc3)CC2)cc(OC)c1OC` it is above 67.3 µg/mL.
The compound `COc1ccc(C(=O)Cn2c(=O)oc3ccc(C)cc32)cc1` came in with a solubility (kinetic) below 0.6 µg/mL.
The compound `Cc1[nH]c2ccccc2c1/C=N/NC(=O)c1ccccc1` displayed a solubility (kinetic) above 41.6 µg/mL.
`CC(C)N1CCN(Cc2c[nH]c3ccccc23)CC1CCO` (stereo not drawn) gave a solubility (kinetic) of 32.8 µg/mL (≈ 109 µM).
Under `CCOc1ccccc1CNCc1ccc(F)cc1.Cl` stands 43.8 µg/mL; under `C[C@@H](C(=O)OCC(=O)c1ccccc1)N1C(=O)C2CCCCC2C1=O` (stereo partly drawn), above 51.5 µg/mL; under `O=C(COC(=O)c1ccccc1Br)Nc1ccccc1F`, 5.4 µg/mL (≈ 15.3 µM).
Take `Cc1cccc(C)c1OCC(=O)N1CCc2ccccc2C1`: the solubility (kinetic) was found to be 34.5 µg/mL (≈ 117 µM).
Consider `COc1cccc(NC(=O)N2CCCC2C(=O)NCc2ccco2)c1` (stereo not drawn), for which the solubility (kinetic) came to 47.6 µg/mL (≈ 139 µM).
As for `COC(=O)c1ccc(N/C=C/C(=O)c2ccccc2)cc1`, the kinetic solubility is 1.5 µg/mL (≈ 5.33 µM).
The compound `CCOc1ccc(NC(=O)COC(=O)c2ccc(S(=O)(=O)N3CCOCC3)cc2)cc1` displayed a kinetic solubility of 25.9 µg/mL (≈ 57.7 µM).
The compound `O=C(COc1ccc(Br)cc1F)NC1CC1` returned a kinetic solubility above 43.2 µg/mL.
In turn, `O=C(CN1C(=O)NC(c2ccccc2)(c2ccccc2)C1=O)NCc1ccco1` registered a kinetic solubility of 13.7 µg/mL (≈ 35.2 µM).
Turning to `Cn1c(=O)oc2cc(S(=O)(=O)NCc3cccnc3)ccc21`, the solubility (kinetic) was found to be 30.5 µg/mL (≈ 95.5 µM).
In turn, `CCCCOc1ccc(/C=C(\C(=O)O)c2ccc(S(=O)(=O)N3CCCC3)s2)cc1` displayed a solubility (kinetic) above 65.3 µg/mL.
On to `Cc1ccc(C(=O)N/C(=C\c2cccs2)C(=O)N2CCOCC2)cc1C`, for which the solubility (kinetic) was above 55.6 µg/mL.
`CC(=O)Nc1ccc(NC(=O)CCSCCc2ccccn2)cc1`: the kinetic solubility is above 51.5 µg/mL.
`Cc1[nH]c(=O)[nH]c(=O)c1/C=C/C(=O)O` gave a kinetic solubility above 29.4 µg/mL.
The compound `CCCc1cc(=O)[nH]c(SCC(=O)Nc2cc(C)on2)n1` yielded a kinetic solubility above 46.3 µg/mL.
Take `O=C(NC1CCCC1)c1cccc(Cl)c1`: the kinetic solubility came to 32.6 µg/mL (≈ 146 µM).
Take `Cc1ccc(C)c(C(=O)NC(C)CCc2ccccc2)c1` (stereo not drawn): the kinetic solubility came out at 0.7 µg/mL (≈ 2.49 µM).
The compound `CC1(C(=O)OCC(=O)NCc2ccc(Cl)cc2)CC1(Cl)Cl` (stereo not drawn) returned a kinetic solubility of 52.5 µg/mL (≈ 150 µM).
With `O=C(O)c1ccccn1`, the kinetic solubility was above 18.5 µg/mL.
In the case of `CCc1ccc(N2CC(C(=O)NC3CC3)CC2=O)cc1` (stereo not drawn), the solubility (kinetic) is above 40.9 µg/mL.
On to `O=C(c1cc(COc2ccc(F)cc2F)on1)N1CCOCC1`, for which the kinetic solubility is above 48.6 µg/mL.
Take `Cc1c(C(=O)Nc2cccc(S(=O)(=O)N3CCOCC3)c2)oc2ccccc12`: the solubility (kinetic) was 2.3 µg/mL (≈ 5.74 µM).
As for `O=C(Nc1ccccc1)Nc1cnccn1`, the solubility (kinetic) was 16.2 µg/mL (≈ 75.6 µM).
`Cc1[nH]c2ccccc2c1-c1nc2ccccc2[nH]c1=O` displayed a kinetic solubility of 1.3 µg/mL (≈ 4.72 µM).
`COc1ccc(N2C(=O)/C(=C/c3cccs3)C(=O)NC2=S)cc1` displayed a solubility (kinetic) of 31.4 µg/mL (≈ 91.2 µM).
Take `O=C(c1nc(SCc2ccc([N+](=O)[O-])cc2)n2ccccc12)C(F)(F)F`: the solubility (kinetic) was below 0.3 µg/mL.
Compound `O=C(CCNC(=O)c1ccccc1)NNC(=O)c1ccccc1Br` registered a kinetic solubility above 58.5 µg/mL.
Compound `O=C(Cc1cccs1)NCc1cccc(Cl)c1` registered a kinetic solubility above 39.9 µg/mL.
The figure for `O=C(Cc1ccccc1[N+](=O)[O-])NCCC1=CCCCC1` is 26.7 µg/mL (≈ 92.6 µM); for `CCOC(=O)c1[nH]c(=O)[nH]c1CNc1ccccc1C#N` it is above 42.9 µg/mL.
The compound `CC1CCCCC12NC(=O)N(CC(=O)NCc1ccccc1)C2=O` (stereo not drawn) came in with a solubility (kinetic) above 49.4 µg/mL.
`O=[N+]([O-])c1ccccc1S(=O)(=O)N/C(=N/S(=O)(=O)c1ccccc1)c1ccccc1` displayed a solubility (kinetic) above 66.8 µg/mL.
The compound `O=C1c2ccccc2C(=O)N1CC(O)COc1ccccc1Cl` (stereo not drawn) returned a solubility (kinetic) of 44 µg/mL (≈ 133 µM).
In turn, `Cn1cc(S(=O)(=O)N2CCOCC2)cc1C(=O)O` registered a kinetic solubility above 41.1 µg/mL.
The figure for `O=C(CCc1c[nH]c2ccccc12)Nc1ncccc1O` is above 42.2 µg/mL; for `CCOC(=O)C(=O)Nc1ccc(OCc2ccccc2)cc1` it is 30.2 µg/mL (≈ 101 µM).
`Cc1ccc(S(=O)(=O)CCC(=O)Nc2sccc2C(N)=O)cc1`: the solubility (kinetic) is above 52.9 µg/mL.
Regarding `CC(=O)Nc1ccc(-c2csc(NC(=O)CCNC(=O)c3ccco3)n2)cc1`, the kinetic solubility is 11.7 µg/mL (≈ 29.4 µM).
`COc1cccc(OC)c1C(=O)Nc1cccnc1` displayed a kinetic solubility above 38.7 µg/mL.
As to `Cc1c(C(=O)Nc2ccc3c(c2)OCCO3)cnn1C`, the solubility (kinetic) is above 41 µg/mL.
Under `COC(=O)c1ccccc1NC(=O)CSc1nncn1C` stands above 46 µg/mL; under `CN(C)CCCN1C(=O)C2CCc3[nH]c4ccccc4c3C2C1=O` (stereo not drawn), above 48.8 µg/mL; under `CCC(C)NC(=O)Cn1nc(Cc2ccncc2)c2ccccc2c1=O` (stereo not drawn), above 52.6 µg/mL.
In turn, `CCOC(=O)c1cc2cc([N+](=O)[O-])ccc2oc1=O` displayed a solubility (kinetic) of 18.9 µg/mL (≈ 71.8 µM).
As for `Cl.c1ccc2c(c1)nc(N1CCCCC1)c1ccccc12`, the solubility (kinetic) is 1.8 µg/mL.
`CC(=O)N1CCN(C(=O)CCCNC(=O)c2ccc(Cl)cc2)CC1` showed a solubility (kinetic) above 52.8 µg/mL.
Compound `CCOP(=O)(OCC)C(NC(=O)c1ccc(OC)cc1)c1ccccc1` (stereo not drawn) showed a solubility (kinetic) of 53.8 µg/mL (≈ 143 µM).
On to `O=C(CNC(=O)c1ccccc1F)NC1=NCCS1`, for which the solubility (kinetic) was above 42.2 µg/mL.
In the case of `COc1ccc(NC(=O)c2sc3nc(C)cc(C)c3c2N)cc1`, the kinetic solubility was below 0.2 µg/mL.
